Laboratory results reported in ChEMBL document CHEMBL4665648, “Potent and selective inhibitors of receptor-interacting protein kinase 1 that lack an aromatic back pocket group” (Bioorg Med Chem Lett, 2019).

Columns and labels:
[1] = target: Tyrosine-protein kinase receptor UFO (Homo sapiens) (UniProt P30530); assay: Inhibition of recombinant human GST-tagged full length AXL expressed in insect expression system using Tyr 06 as substrate at 10 uM incubated for 60 mins by Z'-Lyte assay relative to control
[2] = target: Serine/threonine-protein kinase Sgk3 (Homo sapiens) (UniProt Q96BR1); assay: Inhibition of recombinant human GST-tagged full length SGK3 (87 to 496 residues) expressed in baculovirus expression system using Ser/Thr 06 as substrate at 10 uM incubated for 60 mins by Z'-Lyte assay relative to control
[3] = target: Wee1-like protein kinase (Homo sapiens) (UniProt P30291); assay: Inhibition of tracer 178 binding to recombinant human N-terminal GST-tagged full length WEE1 expressed in baculovirus expression system at 10 uM incubated for 60 mins by Lanthascreen assay relative to control
[4] = target: Homeodomain-interacting protein kinase 1 (Homo sapiens) (UniProt Q86Z02); assay: Inhibition of recombinant human N-terminal GST-tagged HIPK1 (158 to 555 residues) expressed in baculovirus expression system using Ser/Thr 09 as substrate at 10 uM incubated for 60 mins by Z'-Lyte assay relative to control
[5] = target: Tyrosine-protein kinase FRK (Homo sapiens) (UniProt P42685); assay: Inhibition of recombinant human GST-tagged full length FRK expressed in baculovirus expression system using Tyr 01 as substrate at 10 uM incubated for 60 mins by Z'-Lyte assay relative to control
[6] = target: MAP kinase-activated protein kinase 3 (Homo sapiens) (UniProt Q16644); assay: Inhibition of recombinant human His-tagged full length MAPKAPK3 expressed in baculovirus expression system using Ser/Thr 04 as substrate at 10 uM incubated for 60 mins by Z'-lyte assay relative to control
[7] = target: Rho-associated protein kinase 2 (Homo sapiens) (UniProt O75116); assay: Inhibition of recombinant human N-terminal GST-tagged ROCK2 (1 to 552 residues) expressed in baculovirus expression system using Ser/Thr 13 as substrate at 10 uM incubated for 60 mins by Z'-Lyte assay relative to control
Chain of Rho-associated protein kinase 2 (Homo sapiens) (O75116 whole entry, looked up, the tested form may be a part): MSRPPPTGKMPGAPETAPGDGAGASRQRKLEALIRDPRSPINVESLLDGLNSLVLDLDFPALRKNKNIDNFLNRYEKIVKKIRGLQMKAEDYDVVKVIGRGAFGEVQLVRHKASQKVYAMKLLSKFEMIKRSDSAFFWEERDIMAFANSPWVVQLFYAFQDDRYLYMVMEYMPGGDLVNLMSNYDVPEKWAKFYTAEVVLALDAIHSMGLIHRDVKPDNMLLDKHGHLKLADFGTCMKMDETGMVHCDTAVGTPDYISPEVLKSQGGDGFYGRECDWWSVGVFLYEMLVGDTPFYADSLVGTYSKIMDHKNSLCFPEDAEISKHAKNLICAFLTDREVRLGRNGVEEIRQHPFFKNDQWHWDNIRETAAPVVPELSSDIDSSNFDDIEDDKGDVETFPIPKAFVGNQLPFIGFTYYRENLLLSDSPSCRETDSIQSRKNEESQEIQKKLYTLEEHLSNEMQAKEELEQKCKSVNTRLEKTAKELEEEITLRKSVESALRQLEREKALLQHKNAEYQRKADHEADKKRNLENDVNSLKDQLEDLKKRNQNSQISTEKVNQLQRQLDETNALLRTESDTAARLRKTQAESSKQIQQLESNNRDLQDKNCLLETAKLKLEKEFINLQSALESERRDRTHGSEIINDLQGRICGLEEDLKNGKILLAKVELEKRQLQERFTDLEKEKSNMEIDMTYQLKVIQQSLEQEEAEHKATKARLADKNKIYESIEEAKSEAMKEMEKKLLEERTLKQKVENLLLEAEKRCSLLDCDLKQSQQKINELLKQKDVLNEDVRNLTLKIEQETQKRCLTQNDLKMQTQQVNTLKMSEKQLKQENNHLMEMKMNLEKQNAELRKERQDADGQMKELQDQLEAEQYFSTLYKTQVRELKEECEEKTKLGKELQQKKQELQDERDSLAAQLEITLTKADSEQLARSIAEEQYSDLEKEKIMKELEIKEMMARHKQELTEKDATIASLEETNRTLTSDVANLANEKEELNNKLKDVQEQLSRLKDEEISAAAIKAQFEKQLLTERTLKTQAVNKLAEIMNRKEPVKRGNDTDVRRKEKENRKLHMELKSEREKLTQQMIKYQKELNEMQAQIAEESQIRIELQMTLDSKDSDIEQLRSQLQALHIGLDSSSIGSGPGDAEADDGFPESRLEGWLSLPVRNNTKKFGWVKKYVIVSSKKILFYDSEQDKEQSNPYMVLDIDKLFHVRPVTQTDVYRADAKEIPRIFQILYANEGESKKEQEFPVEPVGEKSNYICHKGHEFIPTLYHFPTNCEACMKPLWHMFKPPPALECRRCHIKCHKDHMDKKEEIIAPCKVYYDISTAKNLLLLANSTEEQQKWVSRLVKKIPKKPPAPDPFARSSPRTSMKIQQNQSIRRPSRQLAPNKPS

[8] = target: Mitogen-activated protein kinase 8 (Homo sapiens) (UniProt P45983); assay: Inhibition of recombinant human His-tagged full length JNK1alpha1 expressed in baculovirus expression system using Ser/Thr 04 as substrate at 10 uM incubated for 60 mins by Z'-lyte assay relative to control
[9] = target: Sphingosine kinase 1 (Homo sapiens) (UniProt Q9NYA1); assay: Inhibition of recombinant human GST-tagged full length SPHK1 expressed in baculovirus expression system using sphingosine lipid substrate mixture as substrate at 10 uM incubated for 60 mins by Adapta assay relative to control
[10] = Lipophilicity, logD of compound at pH 7.4; assay type: physicochemical; details: buffer
[11] = target: Tyrosine-protein kinase JAK3 (Homo sapiens) (UniProt P52333); assay: Inhibition of recombinant human GST-tagged JAK3 (781 to 1124 residues) expressed in baculovirus expression system using Tyr 06 as substrate at 10 uM incubated for 60 mins by Z'-lyte assay relative to control
Chain of Tyrosine-protein kinase JAK3 (Homo sapiens) (P52333 whole entry, the tested form may be a part): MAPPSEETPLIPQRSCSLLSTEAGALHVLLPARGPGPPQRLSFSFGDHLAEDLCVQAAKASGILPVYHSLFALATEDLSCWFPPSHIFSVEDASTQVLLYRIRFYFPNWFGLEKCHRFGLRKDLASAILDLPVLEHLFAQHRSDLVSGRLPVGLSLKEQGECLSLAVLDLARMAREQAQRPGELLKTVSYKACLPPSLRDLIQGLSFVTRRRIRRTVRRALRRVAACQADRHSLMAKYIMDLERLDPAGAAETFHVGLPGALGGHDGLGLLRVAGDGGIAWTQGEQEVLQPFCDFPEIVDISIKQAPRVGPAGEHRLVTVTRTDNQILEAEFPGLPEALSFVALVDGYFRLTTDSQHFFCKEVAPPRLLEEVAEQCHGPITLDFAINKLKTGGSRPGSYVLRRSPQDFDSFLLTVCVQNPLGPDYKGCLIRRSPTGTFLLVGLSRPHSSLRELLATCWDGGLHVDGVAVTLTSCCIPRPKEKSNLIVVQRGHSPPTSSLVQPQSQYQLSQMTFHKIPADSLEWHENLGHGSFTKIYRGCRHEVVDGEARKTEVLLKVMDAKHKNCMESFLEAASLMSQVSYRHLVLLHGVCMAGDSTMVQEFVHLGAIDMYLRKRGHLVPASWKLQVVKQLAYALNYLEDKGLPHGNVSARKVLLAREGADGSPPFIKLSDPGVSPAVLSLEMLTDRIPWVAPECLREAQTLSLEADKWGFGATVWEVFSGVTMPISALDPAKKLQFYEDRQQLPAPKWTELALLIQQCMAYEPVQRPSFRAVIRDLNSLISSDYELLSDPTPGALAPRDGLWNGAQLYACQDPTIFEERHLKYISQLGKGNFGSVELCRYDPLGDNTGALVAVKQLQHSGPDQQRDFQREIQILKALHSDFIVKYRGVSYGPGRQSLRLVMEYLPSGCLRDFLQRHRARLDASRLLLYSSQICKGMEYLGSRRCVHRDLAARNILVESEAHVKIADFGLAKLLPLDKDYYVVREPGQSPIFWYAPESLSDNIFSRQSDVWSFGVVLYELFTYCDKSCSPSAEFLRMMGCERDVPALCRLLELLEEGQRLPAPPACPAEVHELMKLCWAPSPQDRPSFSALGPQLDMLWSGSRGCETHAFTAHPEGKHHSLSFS

[12] = target: Serine/threonine-protein kinase MARK1 (Homo sapiens) (UniProt Q9P0L2); assay: Inhibition of recombinant human GST-tagged full length MARK1 expressed in baculovirus expression system using Ser/Thr 21 as substrate at 10 uM incubated for 60 mins by Z'-lyte assay relative to control
[13] = target: Myosin light chain kinase (Homo sapiens) (UniProt Q32MK0); assay: Inhibition of MYLK3 (unknown origin) by selectscreen kinase assay; details: dose 10.0 µM, time 60.0 min
[14] = target: Mitogen-activated protein kinase 11 (Homo sapiens) (UniProt Q15759); assay: Inhibition of recombinant human His-tagged full length p38 beta expressed in baculovirus expression system using Ser/Thr 15 as substrate at 10 uM incubated for 60 mins by Z'-Lyte assay relative to control
[15] = target: Tyrosine-protein kinase HCK (Homo sapiens) (UniProt P08631); assay: Inhibition of recombinant human N-terminal GST-tagged full length HCK expressed in baculovirus expression system using Tyr 02 as substrate at 10 uM incubated for 60 mins by Z'-Lyte assay relative to control
[16] = target: High affinity nerve growth factor receptor (Homo sapiens) (UniProt P04629); assay: Inhibition of recombinant human His-tagged TRKA (441 to 796 residues) expressed in baculovirus expression system using Tyr 01 as substrate at 10 uM incubated for 60 mins by Z'-Lyte assay relative to control
Chain of High affinity nerve growth factor receptor (Homo sapiens) (P04629 33-796 limits assumed): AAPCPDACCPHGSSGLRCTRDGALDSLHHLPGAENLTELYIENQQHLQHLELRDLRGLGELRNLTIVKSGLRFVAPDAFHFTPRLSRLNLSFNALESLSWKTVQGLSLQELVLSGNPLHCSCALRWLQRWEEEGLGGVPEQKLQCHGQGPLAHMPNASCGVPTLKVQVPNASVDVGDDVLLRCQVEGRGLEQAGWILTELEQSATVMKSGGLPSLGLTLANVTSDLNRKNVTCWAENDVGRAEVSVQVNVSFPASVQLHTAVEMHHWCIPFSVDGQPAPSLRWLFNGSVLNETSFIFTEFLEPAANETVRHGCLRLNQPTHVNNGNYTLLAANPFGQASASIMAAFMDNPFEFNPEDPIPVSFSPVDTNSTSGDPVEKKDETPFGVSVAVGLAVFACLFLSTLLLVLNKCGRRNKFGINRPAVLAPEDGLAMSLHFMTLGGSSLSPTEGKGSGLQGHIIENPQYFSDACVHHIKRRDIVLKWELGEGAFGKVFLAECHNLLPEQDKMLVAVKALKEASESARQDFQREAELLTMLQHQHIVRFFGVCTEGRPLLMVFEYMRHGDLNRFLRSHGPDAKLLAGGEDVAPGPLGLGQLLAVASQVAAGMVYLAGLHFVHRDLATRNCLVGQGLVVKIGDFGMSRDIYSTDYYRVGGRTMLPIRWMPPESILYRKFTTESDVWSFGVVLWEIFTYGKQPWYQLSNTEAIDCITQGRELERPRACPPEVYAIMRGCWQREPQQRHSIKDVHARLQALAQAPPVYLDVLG

[17] = target: Serine/threonine-protein kinase Nek4 (Homo sapiens) (UniProt P51957); assay: Inhibition of recombinant human GST-tagged full length NEK4 expressed in baculovirus expression system using Ser/Thr 17 as substrate at 10 uM incubated for 60 mins by Z'-lyte assay relative to control
Chain of Serine/threonine-protein kinase Nek4 (Homo sapiens) (P51957 whole entry, looked up, the tested form may be a part): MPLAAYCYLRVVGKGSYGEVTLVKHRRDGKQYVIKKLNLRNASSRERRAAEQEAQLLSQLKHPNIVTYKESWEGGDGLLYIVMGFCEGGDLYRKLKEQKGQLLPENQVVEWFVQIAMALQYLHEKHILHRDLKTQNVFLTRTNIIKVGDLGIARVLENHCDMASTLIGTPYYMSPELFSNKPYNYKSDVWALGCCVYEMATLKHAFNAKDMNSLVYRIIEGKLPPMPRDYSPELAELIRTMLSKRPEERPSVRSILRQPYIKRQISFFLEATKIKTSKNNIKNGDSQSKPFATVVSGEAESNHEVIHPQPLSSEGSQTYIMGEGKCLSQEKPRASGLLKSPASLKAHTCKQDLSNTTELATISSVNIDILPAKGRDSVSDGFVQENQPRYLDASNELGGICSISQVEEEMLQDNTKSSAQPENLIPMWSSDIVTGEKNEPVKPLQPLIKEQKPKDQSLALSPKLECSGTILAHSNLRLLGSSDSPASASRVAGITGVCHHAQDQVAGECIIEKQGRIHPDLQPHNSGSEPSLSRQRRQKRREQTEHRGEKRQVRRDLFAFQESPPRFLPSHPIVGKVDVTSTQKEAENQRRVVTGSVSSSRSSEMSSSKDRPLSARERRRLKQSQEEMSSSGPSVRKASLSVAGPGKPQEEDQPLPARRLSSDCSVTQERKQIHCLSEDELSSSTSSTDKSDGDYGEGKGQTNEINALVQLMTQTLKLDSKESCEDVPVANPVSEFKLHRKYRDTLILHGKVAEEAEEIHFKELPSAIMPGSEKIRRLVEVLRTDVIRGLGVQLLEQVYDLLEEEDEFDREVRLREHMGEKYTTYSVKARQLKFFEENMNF

[18] = target: Serine/threonine-protein kinase TAO2 (Homo sapiens) (UniProt Q9UL54); assay: Inhibition of recombinant human GST-tagged TAO2 (1 to 314 residues) expressed in baculovirus expression system using Ser/Thr 07 as substrate at 10 uM incubated for 60 mins by Z'-Lyte assay relative to control
[19] = target: Phosphorylase b kinase gamma catalytic chain, skeletal muscle/heart isoform (Homo sapiens) (UniProt Q16816); assay: Inhibition of recombinant human GST-tagged full length PHKG1 expressed in baculovirus expression system using Ser/Thr 07 as substrate at 10 uM incubated for 60 mins by Z'-lyte assay relative to control
Chain of Phosphorylase b kinase gamma catalytic chain, skeletal muscle/heart isoform (Homo sapiens) (Q16816 whole entry, looked up, canonical isoform): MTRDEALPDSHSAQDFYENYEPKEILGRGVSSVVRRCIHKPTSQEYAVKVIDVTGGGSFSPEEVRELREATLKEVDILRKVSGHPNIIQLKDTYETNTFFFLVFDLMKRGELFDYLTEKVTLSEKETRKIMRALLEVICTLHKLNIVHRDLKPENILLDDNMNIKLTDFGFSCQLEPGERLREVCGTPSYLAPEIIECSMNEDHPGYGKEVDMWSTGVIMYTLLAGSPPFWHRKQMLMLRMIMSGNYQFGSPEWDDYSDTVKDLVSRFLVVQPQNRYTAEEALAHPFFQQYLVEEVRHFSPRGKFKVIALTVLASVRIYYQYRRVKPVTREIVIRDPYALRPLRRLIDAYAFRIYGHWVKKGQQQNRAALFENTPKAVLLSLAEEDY

[20] = target: SRSF protein kinase 3 (Homo sapiens) (UniProt Q9UPE1); assay: Inhibition of recombinant human GST-tagged full length MSSK1 expressed in baculovirus expression system using Ser/Thr 13 as substrate at 10 uM incubated for 60 mins by Z'-lyte assay relative to control
[21] = target: Cytoplasmic tyrosine-protein kinase BMX (Homo sapiens) (UniProt P51813); assay: Inhibition of recombinant human His-tagged full length BMX expressed in baculovirus expression system using Tyr 01 as substrate at 10 uM incubated for 60 mins by Z'-Lyte assay relative to control
[22] = target: Tyrosine-protein kinase Yes (Homo sapiens) (UniProt P07947); assay: Inhibition of recombinant human GST-tagged full length YES expressed in baculovirus expression system using Tyr 02 as substrate at 10 uM incubated for 60 mins by Z'-Lyte assay relative to control
[23] = target: Serine/threonine-protein kinase pim-1 (Homo sapiens) (UniProt P11309); assay: Inhibition of recombinant human His-tagged full length PIM1 expressed in baculovirus expression system using Ser/Thr 07 as substrate at 10 uM incubated for 60 mins by Z'-lyte assay relative to control
[24] = target: Activin receptor type-2B (Homo sapiens) (UniProt Q13705); assay: Inhibition of tracer 178 binding to recombinant human GST-tagged ACVR2B (185 to 488 residues) expressed in baculovirus expression system at 10 uM incubated for 60 mins by Lanthascreen assay relative to control
[25] = target: cAMP-dependent protein kinase catalytic subunit PRKX (Homo sapiens) (UniProt P51817); assay: Inhibition of recombinant human GST-tagged full length PRKX expressed in baculovirus expression system using Ser/Thr 01 as substrate at 10 uM incubated for 60 mins by Z'-lyte assay relative to control
Chain of cAMP-dependent protein kinase catalytic subunit PRKX (Homo sapiens) (P51817 whole entry): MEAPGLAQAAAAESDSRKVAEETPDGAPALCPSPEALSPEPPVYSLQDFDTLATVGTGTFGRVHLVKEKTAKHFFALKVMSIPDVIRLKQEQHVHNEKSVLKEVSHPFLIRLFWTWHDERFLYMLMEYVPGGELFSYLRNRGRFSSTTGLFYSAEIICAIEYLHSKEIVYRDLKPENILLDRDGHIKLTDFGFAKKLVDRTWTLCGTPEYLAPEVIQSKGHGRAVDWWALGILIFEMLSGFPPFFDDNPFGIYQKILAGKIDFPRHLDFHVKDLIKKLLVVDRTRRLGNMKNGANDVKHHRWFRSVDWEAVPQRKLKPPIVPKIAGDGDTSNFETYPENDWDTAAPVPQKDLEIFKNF

Work on CN1C(=O)[C@@H](NC(=O)c2n[nH]c3ncc(C(F)(F)C(F)(F)F)cc23)COc2ccccc21 yielded an inhibition [1] of 6.5%, an inhibition [2] of 0.5% and an inhibition [3] of 4%. It also gave an inhibition [4] of 5%, an inhibition [5] of 5% and an inhibition [6] of 0.5%. The inhibition [7] was -3%, the inhibition [8] was 8.5% and the inhibition [9] was -8%. It also gave a logD [10] of 4.1, an inhibition [11] of 1.5% and an inhibition [12] of -5.5%. For the same compound, the inhibition [13] was 10.5%, the inhibition [14] was 9% and the inhibition [15] was 4.5%. The inhibition [16] was 3%, the inhibition [17] was 3.5% and the inhibition [18] was 5%. The inhibition [19] was 9%, the inhibition [20] was 6.5% and the inhibition [21] was 1.5%. The inhibition [22] was 2.5%, the inhibition [23] was -5% and the inhibition [24] was -0.5%. It also gave an inhibition [25] of 4.5%.
